Laboratory results taken from the supplement of paper PMC10307832.

Each cell line was assayed with CC1=CC(=CC=C1)NC2=NC(=CS2)C3=CC=NC=C3 + O=C(CCCCCCC(=O)Nc1ccccc1)NO [Vorinostat] (partner 1 µM) (assay: relative viability (nuclei count vs DMSO), 5 days (fraction); higher = more cells survive). Conditions: first compound 0.08 µM.
How it was run: (§1)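 Values are medians from duplicate plates. Each reflects relative viability, defined as the nuclei count of treated wells over that of vehicle wells. Lung cancer cell lines in 1536-well plates were pin-tool dosed one day after seeding with one drug alone or with a fixed anchor-drug dose plus five library-drug doses (not always all listed) in √10 steps, then fixed, stained and imaged at 4× after 5 days.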

| Cell Line | relative viability |
| --- | --- |
| NCI-H1993 | 0.691 |
| SK-LU-1 | 0.76 |
| ABC-1 | 0.944 |
| SK-MES-1 | 0.851 |
| NCI-H661 | 0.764 |
| RERF-LC-KJ | 0.662 |

Same assay, conditions: first compound 0.253 µM

| Cell Line | relative viability |
| --- | --- |
| NCI-H1993 | 0.649 |
| SK-LU-1 | 0.796 |
| SK-MES-1 | 0.829 |
| NCI-H661 | 0.753 |
| RERF-LC-KJ | 0.541 |

Same assay, conditions: first compound 0.8 µM

| Cell Line | relative viability |
| --- | --- |
| NCI-H1993 | 0.726 |
| SK-LU-1 | 0.53 |
| ABC-1 | 1.44 |
| SK-MES-1 | 0.819 |
| NCI-H661 | 0.747 |
| RERF-LC-KJ | 0.526 |

Same assay, conditions: first compound 2.53 µM

| Cell Line | relative viability |
| --- | --- |
| NCI-H1993 | 0.819 |
| SK-LU-1 | 0.799 |
| ABC-1 | 0.963 |
| SK-MES-1 | 0.86 |
| NCI-H661 | 0.718 |
| RERF-LC-KJ | 0.373 |

Same assay, conditions: first compound 8 µM

| Cell Line | relative viability |
| --- | --- |
| NCI-H1993 | 0.726 |
| SK-LU-1 | 0.727 |
| ABC-1 | 0.377 |
| SK-MES-1 | 0.822 |
| NCI-H661 | 0.666 |
| RERF-LC-KJ | 0.279 |

The cell lines below were run with CC1=CC(=CC=C1)NC2=NC(=CS2)C3=CC=NC=C3 + CCNC(=O)c1noc(-c2cc(C(C)C)c(O)cc2O)c1-c1ccc(CN2CCOCC2)cc1 [Luminespib] (partner 0.01 µM) in the same assay as above. Conditions: first compound 0.08 µM.
How it was run: as §1

| Cell Line | relative viability |
| --- | --- |
| NCI-H1993 | 0.767 |
| SK-LU-1 | 0.205 |
| ABC-1 | 0.447 |
| SK-MES-1 | 0.614 |
| NCI-H661 | 0.887 |
| RERF-LC-KJ | 1.06 |

Same assay, conditions: first compound 0.253 µM

| Cell Line | relative viability |
| --- | --- |
| NCI-H1993 | 0.545 |
| SK-LU-1 | 0.223 |
| ABC-1 | 0.766 |
| SK-MES-1 | 0.515 |
| NCI-H661 | 0.963 |
| RERF-LC-KJ | 1.19 |

Same assay, conditions: first compound 0.8 µM

| Cell Line | relative viability |
| --- | --- |
| NCI-H1993 | 0.546 |
| ABC-1 | 0.492 |
| SK-MES-1 | 0.556 |
| NCI-H661 | 0.885 |
| RERF-LC-KJ | 0.982 |

Same assay, conditions: first compound 2.53 µM

| Cell Line | relative viability |
| --- | --- |
| NCI-H1993 | 0.624 |
| SK-LU-1 | 0.183 |
| ABC-1 | 0.676 |
| SK-MES-1 | 0.749 |
| NCI-H661 | 0.887 |
| RERF-LC-KJ | 0.999 |

Same assay, conditions: first compound 8 µM

| Cell Line | relative viability |
| --- | --- |
| NCI-H1993 | 0.7 |
| SK-LU-1 | 0.227 |
| ABC-1 | 0.647 |
| SK-MES-1 | 0.508 |
| NCI-H661 | 0.863 |
| RERF-LC-KJ | 0.717 |

Each cell line was assayed with Cc1ccc(NC(=O)c2ccc(CN3CCN(C)CC3)cc2)cc1Nc1nc(-c2cccnc2)cs1 [Masitinib] + Cc1cc(Nc2cc(N3CCN(C)CC3)nc(Sc3ccc(NC(=O)C4CC4)cc3)n2)n[nH]1 [Tozasertib] (partner 0.1 µM) in the same assay as above. Conditions: first compound 0.01 µM.
How it was run: as §1

| Cell Line | relative viability |
| --- | --- |
| NCI-H1993 | 0.519 |
| SK-LU-1 | 0.349 |
| ABC-1 | 0.223 |
| SK-MES-1 | 1.02 |
| NCI-H661 | 0.338 |
| RERF-LC-KJ | 0.558 |

Same assay, conditions: first compound 0.03162 µM

| Cell Line | relative viability |
| --- | --- |
| NCI-H1993 | 0.554 |
| SK-LU-1 | 0.299 |
| ABC-1 | 0.163 |
| SK-MES-1 | 0.907 |
| NCI-H661 | 0.372 |
| RERF-LC-KJ | 0.41 |

Same assay, conditions: first compound 0.1 µM

| Cell Line | relative viability |
| --- | --- |
| NCI-H1993 | 0.547 |
| SK-LU-1 | 0.319 |
| ABC-1 | 0.168 |
| SK-MES-1 | 0.925 |
| NCI-H661 | 0.344 |
| RERF-LC-KJ | 0.492 |

Same assay, conditions: first compound 0.3162 µM

| Cell Line | relative viability |
| --- | --- |
| NCI-H1993 | 0.593 |
| SK-LU-1 | 0.35 |
| ABC-1 | 0.226 |
| SK-MES-1 | 0.677 |
| NCI-H661 | 0.342 |
| RERF-LC-KJ | 0.465 |

Same assay, conditions: first compound 1 µM

| Cell Line | relative viability |
| --- | --- |
| NCI-H1993 | 0.498 |
| SK-LU-1 | 0.292 |
| ABC-1 | 0.18 |
| SK-MES-1 | 0.81 |
| NCI-H661 | 0.363 |
| RERF-LC-KJ | 0.336 |

These cell lines were tested with CC1=CC(=CC=C1)NC2=NC(=CS2)C3=CC=NC=C3 + Cc1nc(Nc2ncc(C(=O)Nc3c(C)cccc3Cl)s2)cc(N2CCN(CCO)CC2)n1 [Dasatinib] (partner 0.075 µM) in the same assay as above. Conditions: first compound 0.08 µM.
How it was run: as §1

| Cell Line | relative viability |
| --- | --- |
| NCI-H1993 | 0.532 |
| SK-LU-1 | 0.144 |
| ABC-1 | 0.659 |
| SK-MES-1 | 0.276 |
| NCI-H661 | 0.686 |
| RERF-LC-KJ | 0.533 |

Same assay, conditions: first compound 0.253 µM

| Cell Line | relative viability |
| --- | --- |
| NCI-H1993 | 0.513 |
| SK-LU-1 | 0.201 |
| ABC-1 | 0.473 |
| SK-MES-1 | 0.256 |
| NCI-H661 | 0.862 |
| RERF-LC-KJ | 0.694 |

Same assay, conditions: first compound 0.8 µM

| Cell Line | relative viability |
| --- | --- |
| NCI-H1993 | 0.52 |
| ABC-1 | 0.552 |
| SK-MES-1 | 0.327 |
| NCI-H661 | 0.892 |
| RERF-LC-KJ | 0.64 |

Same assay, conditions: first compound 2.53 µM

| Cell Line | relative viability |
| --- | --- |
| NCI-H1993 | 0.545 |
| SK-LU-1 | 0.219 |
| ABC-1 | 0.445 |
| SK-MES-1 | 0.279 |
| NCI-H661 | 0.774 |
| RERF-LC-KJ | 0.573 |

Same assay, conditions: first compound 8 µM

| Cell Line | relative viability |
| --- | --- |
| NCI-H1993 | 0.485 |
| SK-LU-1 | 0.224 |
| ABC-1 | 0.404 |
| SK-MES-1 | 0.235 |
| NCI-H661 | 0.808 |
| RERF-LC-KJ | 0.515 |
